Source: patent US20240270762A1, “PENICILLIN-BINDING PROTEIN INHIBITORS” (priority 2021, published 2024)
Values after ≈ are worked out from the molar mass of the structure shown.

How the values were obtained:
[1] = molecular target: T1, PBP3 from Escherichia coli (K-12) (Escherichia coli, UniProt P0AD68); assay: Bocillin-FL fluorescence polarization competition binding, E. coli PBP3
T1 construct: made in house
How it was run: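 Purified PBP was preincubated with inhibitor (E. coli PBP3 1.5 μM, 30 min; P. aeruginosa PBP3 0.75 μM, A. baumannii PBP3 0.2 μM and PBP1a 1 μM, 15 min), then Bocillin-FL (0.1 μM; 0.05 μM for PBP1a) added and FP read up to 60 min. EC50 = 50% loss of bound probe.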

P. aeruginosa ATCC 27853 = assay: microbe, parasite or virus in culture; type: cell-based; conditions: Pseudomonas aeruginosa, ATCC27853, read-out: Minimum inhibitory concentration, P. aeruginosa ATCC 27853
[2] = system: P. aeruginosa (ΔmexAB-oprM); assay: Broth microdilution MIC in iron-depleted CAMHB (IDM); type: cell-based; conditions: Pseudomonas aeruginosa; iron-depleted CAMHB (IDM); […]; read-out: Minimum inhibitory concentration, P. aeruginosa ΔmexAB-oprM
P. aeruginosa CDC-0054 = assay: microbe, parasite or virus in culture; type: cell-based; conditions: Pseudomonas aeruginosa, CDC0054, read-out: Minimum inhibitory concentration, P. aeruginosa CDC-0054
P. aeruginosa CDC-0090 = assay: microbe, parasite or virus in culture; type: cell-based; conditions: Pseudomonas aeruginosa, CDC0090, read-out: Minimum inhibitory concentration, P. aeruginosa CDC-0090
A. baumannii 1258916 = assay: microbe, parasite or virus in culture; type: cell-based, Acinetobacter baumannii; conditions: Acinetobacter baumannii, 1258916, read-out: MIC, A. baumannii 1258916
A. baumannii CDC-0036 = assay: microbe, parasite or virus in culture; type: cell-based; conditions: Acinetobacter baumannii, CDC0036, read-out: MIC, A. baumannii CDC-0036
A. baumannii CDC-0083 = assay: microbe, parasite or virus in culture; type: cell-based; conditions: Acinetobacter baumannii, CDC0083, read-out: MIC, A. baumannii CDC-0083
[3] = system: B. thailandensis ATCC 700388; assay: microbe, parasite or virus in culture; type: cell-based; conditions: Burkholderia thailandensis, ATCC700388, read-out: Minimum inhibitory concentration (MIC), B. thailandensis ATCC 700388
P. aeruginosa CDC-0110 = assay: microbe, parasite or virus in culture; type: cell-based; conditions: Pseudomonas aeruginosa, CDC0110, read-out: Minimum inhibitory concentration, P. aeruginosa CDC-0110

T1 sequence (P0AD68 1-577): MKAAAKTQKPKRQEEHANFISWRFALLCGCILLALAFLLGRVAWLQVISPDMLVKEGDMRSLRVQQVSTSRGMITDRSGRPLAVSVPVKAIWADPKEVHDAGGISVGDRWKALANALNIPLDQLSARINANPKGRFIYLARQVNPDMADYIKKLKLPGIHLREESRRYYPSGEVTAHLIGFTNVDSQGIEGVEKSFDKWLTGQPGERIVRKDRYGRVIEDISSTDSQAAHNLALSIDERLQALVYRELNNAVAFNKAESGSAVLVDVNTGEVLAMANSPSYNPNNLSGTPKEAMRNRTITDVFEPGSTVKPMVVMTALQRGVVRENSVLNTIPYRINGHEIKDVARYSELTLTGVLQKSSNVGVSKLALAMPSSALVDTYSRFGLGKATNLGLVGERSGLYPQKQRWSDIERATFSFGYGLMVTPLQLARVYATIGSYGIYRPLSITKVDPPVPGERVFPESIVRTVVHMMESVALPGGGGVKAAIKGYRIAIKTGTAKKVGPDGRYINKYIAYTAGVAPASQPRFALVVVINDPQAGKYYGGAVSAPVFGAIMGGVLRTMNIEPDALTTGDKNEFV

## O=C(NCCCN1CCN(C(=O)N[C@H](C(=O)N[C@H]2Cc3ccc(F)c(C(=O)O)c3OB2O)c2cc(F)c(O)c(O)c2Cl)C(=O)C1=O)c1ccnc(F)c1F [Example 299, (R)-3-((S)-2-(2-chloro-5-fluoro-3,4-dihydroxyphenyl)-2-(4-(3-(2,3-difluoroisonicotinamido)propyl)-2,3-dioxopiperazine-1-carboxamido)acetamido)-7-fluoro-2-hydroxy-3,4-dihydro-2H-benzo[e][1,2]oxaborinine-8-carboxylic acid]
[1]
  EC50: > 250 µM
P. aeruginosa ATCC 27853
  MIC: 8 to 16 µg/mL (≈ 10.2 to 20.5 µM)
[2]
  MIC: 2 to 4 µg/mL (≈ 2.56 to 5.12 µM)
P. aeruginosa CDC-0054
  MIC: 2 to 4 µg/mL (≈ 2.56 to 5.12 µM)
P. aeruginosa CDC-0090
  MIC: 2 to 4 µg/mL (≈ 2.56 to 5.12 µM)
A. baumannii 1258916
  MIC: 8 to 16 µg/mL (≈ 10.2 to 20.5 µM)
A. baumannii CDC-0036
  MIC: 32 to 64 µg/mL (≈ 41 to 82 µM)
A. baumannii CDC-0083
  MIC: 2 to 4 µg/mL (≈ 2.56 to 5.12 µM)
[3]
  MIC: > 128 µg/mL
P. aeruginosa CDC-0110
  MIC: 8 to 16 µg/mL (≈ 10.2 to 20.5 µM)

## O=C(NCCCN1CCN(C(=O)N[C@@H](C(=O)N[C@H]2Cc3ccc(F)c(C(=O)O)c3OB2O)c2cc(F)c(O)c(O)c2Cl)C(=O)C1=O)c1ccnc(F)c1F [Example 300, (R)-3-((R)-2-(2-chloro-5-fluoro-3,4-dihydroxyphenyl)-2-(4-(3-(2,3-difluoroisonicotinamido)propyl)-2,3-dioxopiperazine-1-carboxamido)acetamido)-7-fluoro-2-hydroxy-3,4-dihydro-2H-benzo[e][1,2]oxaborinine-8-carboxylic acid]
[1]
  EC50: < 10 µM
P. aeruginosa ATCC 27853
  MIC: 2 to 4 µg/mL (≈ 2.56 to 5.12 µM)
[2]
  MIC: < 1 µg/mL
P. aeruginosa CDC-0054
  MIC: < 1 µg/mL
P. aeruginosa CDC-0090
  MIC: < 1 µg/mL
A. baumannii 1258916
  MIC: < 1 µg/mL
A. baumannii CDC-0036
  MIC: 2 to 4 µg/mL (≈ 2.56 to 5.12 µM)
A. baumannii CDC-0083
  MIC: < 1 µg/mL
[3]
  MIC: 2 to 4 µg/mL (≈ 2.56 to 5.12 µM)
P. aeruginosa CDC-0110
  MIC: < 1 µg/mL

## Cc1cc(C(=O)NCCCN2CCN(C(=O)NC(C(=O)N[C@H]3Cc4ccc(F)c(C(=O)O)c4OB3O)c3cc(F)c(O)c(O)c3Cl)C(=O)C2=O)c(F)cn1 (stereo partly drawn) [Example 301, (3R)-3-(2-(2-chloro-5-fluoro-3,4-dihydroxyphenyl)-2-(4-(3-(5-fluoro-2-methylisonicotinamido)propyl)-2,3-dioxopiperazine-1-carboxamido)acetamido)-7-fluoro-2-hydroxy-3,4-dihydro-2H-benzo[e][1,2]oxaborinine-8-carboxylic acid]
[1]
  EC50: < 10 µM
P. aeruginosa ATCC 27853
  MIC: < 1 µg/mL
[2]
  MIC: < 1 µg/mL
P. aeruginosa CDC-0054
  MIC: < 1 µg/mL
P. aeruginosa CDC-0090
  MIC: < 1 µg/mL
A. baumannii 1258916
  MIC: < 1 µg/mL
A. baumannii CDC-0036
  MIC: 2 to 4 µg/mL (≈ 2.57 to 5.15 µM)
A. baumannii CDC-0083
  MIC: < 1 µg/mL
[3]
  MIC: 2 to 4 µg/mL (≈ 2.57 to 5.15 µM)
P. aeruginosa CDC-0110
  MIC: < 1 µg/mL

## O=C(NCCCN1CCN(C(=O)N[C@H](C(=O)N[C@H]2Cc3ccc(F)c(C(=O)O)c3OB2O)c2cc(F)c(O)c(O)c2Cl)C(=O)C1=O)c1cccc(O)c1Cl [Example 302, (R)-3-((S)-2-(4-(3-(2-chloro-3-hydroxybenzamido)propyl)-2,3-dioxopiperazine-1-carboxamido)-2-(2-chloro-5-fluoro-3,4-dihydroxyphenyl)acetamido)-7-fluoro-2-hydroxy-3,4-dihydro-2H-benzo[e][1,2]oxaborinine-8-carboxylic acid]
[1]
  EC50: > 250 µM
P. aeruginosa ATCC 27853
  MIC: 32 to 64 µg/mL (≈ 40.3 to 80.6 µM)
[2]
  MIC: 2 to 4 µg/mL (≈ 2.52 to 5.04 µM)
P. aeruginosa CDC-0054
  MIC: 32 to 64 µg/mL (≈ 40.3 to 80.6 µM)
P. aeruginosa CDC-0090
  MIC: 32 to 64 µg/mL (≈ 40.3 to 80.6 µM)
A. baumannii 1258916
  MIC: > 128 µg/mL
A. baumannii CDC-0036
  MIC: > 128 µg/mL
A. baumannii CDC-0083
  MIC: > 128 µg/mL
[3]
  MIC: > 128 µg/mL
P. aeruginosa CDC-0110
  MIC: > 128 µg/mL

## O=C(NCCCN1CCN(C(=O)N[C@@H](C(=O)N[C@H]2Cc3ccc(F)c(C(=O)O)c3OB2O)c2cc(F)c(O)c(O)c2Cl)C(=O)C1=O)c1cccc(O)c1Cl [Example 303, (R)-3-((R)-2-(4-(3-(2-chloro-3-hydroxybenzamido)propyl)-2,3-dioxopiperazine-1-carboxamido)-2-(2-chloro-5-fluoro-3,4-dihydroxyphenyl)acetamido)-7-fluoro-2-hydroxy-3,4-dihydro-2H-benzo[e][1,2]oxaborinine-8-carboxylic acid]
[1]
  EC50: < 10 µM
P. aeruginosa ATCC 27853
  MIC: < 1 µg/mL
[2]
  MIC: < 1 µg/mL
P. aeruginosa CDC-0054
  MIC: < 1 µg/mL
P. aeruginosa CDC-0090
  MIC: < 1 µg/mL
A. baumannii 1258916
  MIC: < 1 µg/mL
A. baumannii CDC-0036
  MIC: < 1 µg/mL
A. baumannii CDC-0083
  MIC: < 1 µg/mL
[3]
  MIC: < 1 µg/mL
P. aeruginosa CDC-0110
  MIC: < 1 µg/mL

## O=C(NCCCN1CCN(C(=O)NC(C(=O)N[C@H]2Cc3ccc(F)c(C(=O)O)c3OB2O)c2cc(F)c(O)c(O)c2Cl)C(=O)C1=O)c1ccc(O)c(F)c1 (stereo partly drawn) [Example 304, (3R)-3-(2-(2-chloro-5-fluoro-3,4-dihydroxyphenyl)-2-(4-(3-(3-fluoro-4-hydroxybenzamido)propyl)-2,3-dioxopiperazine-1-carboxamido)acetamido)-7-fluoro-2-hydroxy-3,4-dihydro-2H-benzo[e][1,2]oxaborinine-8-carboxylic acid]
[1]
  EC50: < 10 µM
P. aeruginosa ATCC 27853
  MIC: 2 to 4 µg/mL (≈ 2.57 to 5.14 µM)
[2]
  MIC: < 1 µg/mL
P. aeruginosa CDC-0054
  MIC: 2 to 4 µg/mL (≈ 2.57 to 5.14 µM)
P. aeruginosa CDC-0090
  MIC: < 1 µg/mL
A. baumannii 1258916
  MIC: < 1 µg/mL
A. baumannii CDC-0036
  MIC: 2 to 4 µg/mL (≈ 2.57 to 5.14 µM)
A. baumannii CDC-0083
  MIC: < 1 µg/mL
[3]
  MIC: 2 to 4 µg/mL (≈ 2.57 to 5.14 µM)
P. aeruginosa CDC-0110
  MIC: < 1 µg/mL
